Laboratory results reported in a melting point compilation (Tetko et al.; mined from patent text by program, amines drawn as free bases though some values may be those of a salt).

SMILES | melting point
CC(C)(C)OC(=O)C=Cc1ccc2ccccc2c1 | 74 to 75 °C
COc1ccnc(C(C)Sc2nc3cc(OC(F)(F)C(F)F)ccc3[nH]2)c1 (stereo not given) | 78 to 81 °C
O=C1CCc2c1cccc2[N+](=O)[O-] | 94 to 97 °C
CCn1nc(-c2ccccc2)c(C(C)=O)c(Nc2cccc(C(=O)O)c2Cl)c1=O | 255 to 256 °C
Clc1ccc(C2NN=C(c3cccnc3)S2)cc1 (stereo not given) | 108 to 110 °C
CCn1c2ccc(C)cc2c(=O)c2c1cnn2C | > 300 °C
COc1cc(C(=O)NS(=O)(=O)c2ccccc2Cl)ccc1Cc1cn(C)c2ccc(CCNC(=O)N3CCOCC3)cc12 | 175 to 181 °C
O=C1Nc2ccccc2N2CCN(CCc3ccncc3)CC12 (stereo not given) | 184 to 186 °C
Cc1ccc(S(=O)(=O)OCC2Cc3c(Br)cccc3O2)cc1 (stereo not given) | 90 to 91 °C
Cc1cc(SCCCSc2nnnn2C)nc(N)n1 | 119 to 120 °C
Brc1nc2ncsc2nc1Br | 142 to 144 °C
O=C(OC1Oc2ccccc2-n2cnc(-c3noc(C4CC4)n3)c21)c1ccccc1 (stereo not given) | 165 to 167 °C
COc1cc2ncc(C#N)c(Nc3ccc(C)cc3)c2cc1OC | 128 to 130 °C
CC(C)Cn1c(=O)n(C)c(=O)c2c(SCCCO)n(Cc3ccccc3CS(=O)(=O)c3ccccc3)nc21 | 50 °C
COc1cc(C(=O)N(C(C)C)C2CCCCC2)ccc1Cn1cccc2nc(-c3cccnc3)nc1-2 | 185 to 188 °C
Cc1cccc(-c2nc3cccnn3c2-c2ccnc(NC(=O)c3ccccc3)c2)c1 | 178 to 180 °C
Cc1ccc(-c2nc(COc3ccc(CCCCn4ccnc4)cc3)co2)o1 | 91 to 92 °C
Nc1nc2[nH]c(CCC#Cc3cscc3C(=O)N[C@@H](CCC(=O)O)C(=O)O)cc2c(=O)[nH]1 | 181 to 182 °C
Cc1cc(O)c(C)c(Br)c1C | 86 to 88 °C
Cc1nc2c(c3c1[nH]c1ccccc13)C(=NO)CC(C)C2 (stereo not given) | 282 to 283 °C
CCC(=O)C1=C(O)CC(c2ccc3ccccc3c2)CC1=O (stereo not given) | 125 °C
O=S(=O)(c1ccc(F)cc1)c1ccc(S)cc1 | 116 °C

SMILES | melting point
CC(C)(C)CC(=O)Nc1ccc2oc3c(c2c1)CCCCCC3 | 157 to 158 °C
O=C1C=C(COCc2ccccc2)N=CC1OCc1ccccc1 (stereo not given) | 103 to 131 °C
CC(=O)N(C)C1CCc2c([nH]c3ccccc23)C1 (stereo not given) | 215 to 216 °C
CN(C)CCn1ccc(-c2ccc(F)cc2)c1-c1ccncc1 | 70 to 73 °C
CCCC(=O)Nc1n[nH]c2c(F)c(C(F)(F)F)ccc12 | 220 to 222 °C
CCCCC(CC)COC(=O)Nc1ccc(C=C(C#N)C(=O)OCC)cc1 (stereo not given) | 105 °C
Fc1ccc(-c2cc(C(F)(F)F)n3ncc(-c4ccccn4)c3n2)cc1Cl | 197 °C
O=C1Nc2c(ccc3ccccc23)SC1=Cc1ccc(Cl)cc1 | 277 to 279 °C
Cc1cc(C)cc(Oc2c(CCCc3ccccc3)c(C)[nH]c(=O)c2I)c1 | 220 °C
CCCC(=O)NC[C@@H]1C[C@H]1c1cc(OC)c(Br)cc1Br (relative stereo) | 114 to 115 °C
O=C(O)CCc1oc(N2CCCCC2)nc1-c1ccc(Cl)cc1 | 185 to 186 °C
O=C(Nc1ccccc1O)c1nnn[nH]1 | 220 to 223 °C
O=C1NC(=O)c2c1c(-c1ccccc1Cl)cc1oc3ccc(O)cc3c21 | 140 to 145 °C
ClCCN(CCCl)CCOc1cccc2c(Cl)c3ccccc3nc12 | 105 to 106 °C
OP(O)C1(NC(c2ccccc2)c2ccccc2)CCCCC1 | 194 to 196 °C
C=CCOC(=O)c1ccc(CC(=O)OC(C)(C)C)cc1 | 68 to 69 °C
COc1ccc(C(F)(F)C(F)(F)F)cc1-c1csc(N)n1 | 125 °C
O=C(NCCCSc1ccncc1)c1ccccc1 | 120 to 121 °C
CCOC(=O)c1cc2c(nc1C(=O)OCC)OCC2O (stereo not given) | 73 to 77 °C
Cc1cn(C(C)C(N)=O)nc1-c1ccccc1 (stereo not given) | 99 to 101 °C
CCC(C)NC(=O)c1ncc(C)cc1C(N)=O (stereo not given) | 119 to 123 °C
CCN(CC)C(=O)c1ccc(C(F)(F)F)cc1-c1ccc(OC)c(OC)c1 | 108 to 110 °C

SMILES | melting point
CCOc1cc(Cc2cnc(N)nc2N)cc2c1OC(C)(C)C=C2 | 184 to 186 °C
CCOC(=O)C1=C(C)NC(=S)N(C(=O)OCC)C1c1ccccc1OC (stereo not given) | 117 to 118 °C
COC(=O)c1cnco1 | 35 to 50 °C
c1ccc(Nn2ccc3ccccc32)nc1 | 109 to 110 °C
COc1ccc(COc2cc(C)nc3c(O)cccc23)cc1OC | 129 to 131 °C
CCCCC(CC)C(=O)Nc1ccc(Oc2ccccc2)c2c(=O)c3ccccc3n(C)c12 (stereo not given) | 154 to 156 °C
CCC(=O)c1[nH]c2cc(Cl)ccc2c1NC(C)=O | > 270 °C
OCC(Br)c1ccccc1 (stereo not given) | 38 to 39 °C
OCc1ccc2ccn(C3CCN(CCc4ccccc4F)CC3)c2c1 | 117 to 118 °C
Cc1nn(-c2ccc(C#N)c(Cl)c2)c(C)c1Oc1ccc(C(=O)N2CCOCC2)cc1 | 156 to 157 °C
COc1cc(OC)c(C2C=CCN(C)C2)c(OC)c1 (stereo not given) | 118 to 122 °C
N#CC(C(=O)Nc1ccccc1)C(=O)c1nn(-c2ccccc2)c2c1CSc1ccc(NC(=O)CN)cc1-2 (stereo not given) | 218 to 221 °C
O=C(O)c1cccnc1Oc1cccc(C(F)(F)F)c1 | 149 to 151 °C
O=C(O)Cc1ccc(O)c(OCc2ccccc2)c1 | 130 to 133 °C
O=C(O)Cn1cc(Cc2cccc(OCc3ccc4ccccc4n3)c2)c2ccccc21 | 151 to 159 °C
Cc1cc(OCc2ccccc2)c(C23CC4CC(CC(C4)C2)C3)cc1Br | 138 to 139 °C
O=[N+]([O-])c1cn2c(n1)O[C@@H](COc1ccc(N3CCC(Nc4ccc(OCc5ccc(OC(F)(F)F)cc5)cc4)CC3)cc1)CC2 | 227 to 229 °C
CCCN(CCC)[C@H]1Cc2ccc(OCC)cc2[C@@H]1O | 74 to 75 °C
Cc1c(C)c(N2CCN(c3ccc(Cl)cc3)CC2)c(C)c2c1OC(C)(C)C2 | 226 to 229 °C
CCCCOC(=O)COc1ccc(C(=O)Nc2cc(C)ccc2Sc2ccccc2-c2nnn[nH]2)cc1 | 146 to 148 °C
c1ccc(-c2cc3cnccc3[nH]2)cc1 | 276 to 278 °C
C=CCOC(=O)c1c(Oc2nc(OC)cc(OC)n2)ccc2[nH]c(C)c(N)c12 | 132 to 135 °C

Now from value to compound:

melting point | SMILES
151 to 152 °C | COc1cccc([C@H]2O[C@H](CC(=O)Nc3cc(CCC(=O)O)ccc3F)C(=O)N(CC(C)(C)CO)c3ccc(Cl)cc32)c1OC
80 to 82 °C | COC(=O)c1cc(-n2c(OC)nc(C(F)(F)C(F)(F)F)cc2=O)c(F)cc1Cl
160 to 162 °C | CCOC(=O)c1sc2nc(SCCCN3CCN(c4ccccn4)CC3)[nH]c(=O)c2c1C
126 °C | O=C(c1ccccc1[N+](=O)[O-])C1CCN(C(=O)C(F)(F)F)CC1
106 to 107 °C | O=C1C=CC(=O)C2=C1OCO2
140 to 148 °C | CCOC(=O)c1cn(-c2cc(N)c(F)cn2)c2c(Cl)c(F)c(F)cc2c1=O
221 °C | Cc1cc(-c2ccc(Cl)cc2)nc(-c2cccc(-c3cccc(S(N)(=O)=O)c3)c2)n1
238 to 239 °C | COc1ccc(N2CCN(CCn3c(=O)[nH]c4cscc4c3=O)CC2)cc1
153 to 155 °C | Cc1ccc(NC(=O)c2cccc(C(F)(F)F)c2)cc1Br
179 to 181 °C | O=C(NCc1ccccn1)c1ccc(N2CCN(C(=O)c3ccccc3C(F)(F)F)CC2)nn1
82 to 84.5 °C | CC(C)SCCOc1ccc(COc2cnn(C(C)(C)C)c(=O)c2Cl)cc1
183 °C | CC(C)(C)OC(=O)NCC1=C(CC(=O)O)CC=CC1
210 to 220 °C | COC(=O)c1ncn2c3cccc(Cl)c3c(=O)n(C)c12
197 to 199 °C | N#Cc1c(C2CC2)nn(-c2c(Cl)cc(C(F)(F)F)cc2Cl)c1N
109 to 110 °C | CC(C)c1nc(C(C)C)c(CSc2c(F)c(F)cc(F)c2F)c(-c2ccc(F)cc2)c1CO
73 to 74 °C | OCCSC/C=C/c1ccc(Cc2cccnc2)cc1
164 to 166 °C | CS(=O)(=O)c1ccc(-c2cc(C(=O)CCCO)nn2-c2ccc(F)cc2)cc1

melting point | SMILES
148 to 151 °C | c1cc(CN2CCc3cccc(CCc4nnn[nH]4)c32)cc(OCc2ccc3ccccc3n2)c1
148 to 150 °C | O=C(NC1CCCC1)c1ccccc1C(c1ccc(O)cc1)c1ccc(O)cc1
104 to 109 °C | c1ccc(COc2ccc(CN(c3ccccc3)c3ccccc3)cc2)cc1
189 to 191 °C | CCCCOc1ccc(S(C)(=O)=O)cc1-c1nc2c(CC)nn(Cc3ccccn3)c2c(=O)[nH]1
97 to 99 °C | O=C1N(Cc2cnc(N3CCOCC3)s2)c2ccccc2C12COc1cc3c(cc12)OCO3 (stereo not given)
193 to 195 °C | CC(=O)N(C)c1ccc2c(c1)cc(C(=O)c1ccc(C)cc1)n2C
186 to 188 °C | CCCc1nc2c(N)nc3cc(OCc4ccc(OC)cc4)ccc3c2n1CC(C)C
236 to 238 °C | CC1NC(=O)NN=C1c1ccc(OCC(=O)NCCN2CCN(S(C)(=O)=O)CC2)c(Cl)c1 (stereo not given)
196 to 199 °C | Cc1cc(NC(c2ccccc2)(c2ccccc2)c2ccccc2)no1
183 to 185 °C | CCOc1nc2cccc(C(=O)O)c2n1Cc1ccc(-c2ccccc2)c(-c2nnn[nH]2)c1
148 to 150 °C | Cc1cc(-n2cnn(CCC3CC3)c2=O)sc1C(=O)NCc1cccnc1
145 to 147 °C | CCOC1Nc2c(ccc(C)c2OC(C)=O)C(=O)N2CCCC12 (stereo not given)
258 to 260 °C | COc1cccc(CNC(=O)c2nc3ccc(-c4nnn[nH]4)cc3c(=O)[nH]2)c1
80 to 83 °C | Cn1c(OCc2ccccc2)noc1=O
118 to 120 °C | CCN(C(=O)N1CCN(c2cc(OC)cc(OC)c2)CC1)c1cc2ccccc2nc1OC
180 to 185 °C | CCOC(=O)c1cn(CC)c2cc(-c3cc(C)no3)ccc2c1=O
102 to 105 °C | CC(C)Oc1ccc(Nc2ccc(N=C=O)cc2C(F)(F)F)cc1C(F)(F)F
